Our source for the IC50 values is ChEMBL document CHEMBL1129839, “The preparation and sar of 4-(anilino), 4-(phenoxy), and 4-(thiophenoxy)-quinazolines: Inhibitors of p56lck and EGF-R tyrosine kinase activity” (Bioorg Med Chem Lett, 1997).

For experiment [1], the target named is T1, Epidermal growth factor receptor (Homo sapiens, UniProt P00533). The experiment can be described thus: Inhibition of Epidermal growth factor receptor autophosphorylation.
Experiment [2] deals with T2, Tyrosine-protein kinase Lck (Homo sapiens, UniProt P06239). Description: Inhibition of p56 Lck tyrosine kinase in Jurkat cells where p56lck autophosphorylation is inhibited. It counts as cell-based.
For experiment [3], the target named is T2, Tyrosine-protein kinase Lck. Description: Inhibition of p56lck kinase autophosphorylation in Jurkat cells. The experiment is classed as cell-based.
The target in experiment [4] is T1, Epidermal growth factor receptor.
Description: Inhibition of Epidermal growth factor receptor autophosphorylation, 0.05-0.10

T1 sequence (P00533 whole entry): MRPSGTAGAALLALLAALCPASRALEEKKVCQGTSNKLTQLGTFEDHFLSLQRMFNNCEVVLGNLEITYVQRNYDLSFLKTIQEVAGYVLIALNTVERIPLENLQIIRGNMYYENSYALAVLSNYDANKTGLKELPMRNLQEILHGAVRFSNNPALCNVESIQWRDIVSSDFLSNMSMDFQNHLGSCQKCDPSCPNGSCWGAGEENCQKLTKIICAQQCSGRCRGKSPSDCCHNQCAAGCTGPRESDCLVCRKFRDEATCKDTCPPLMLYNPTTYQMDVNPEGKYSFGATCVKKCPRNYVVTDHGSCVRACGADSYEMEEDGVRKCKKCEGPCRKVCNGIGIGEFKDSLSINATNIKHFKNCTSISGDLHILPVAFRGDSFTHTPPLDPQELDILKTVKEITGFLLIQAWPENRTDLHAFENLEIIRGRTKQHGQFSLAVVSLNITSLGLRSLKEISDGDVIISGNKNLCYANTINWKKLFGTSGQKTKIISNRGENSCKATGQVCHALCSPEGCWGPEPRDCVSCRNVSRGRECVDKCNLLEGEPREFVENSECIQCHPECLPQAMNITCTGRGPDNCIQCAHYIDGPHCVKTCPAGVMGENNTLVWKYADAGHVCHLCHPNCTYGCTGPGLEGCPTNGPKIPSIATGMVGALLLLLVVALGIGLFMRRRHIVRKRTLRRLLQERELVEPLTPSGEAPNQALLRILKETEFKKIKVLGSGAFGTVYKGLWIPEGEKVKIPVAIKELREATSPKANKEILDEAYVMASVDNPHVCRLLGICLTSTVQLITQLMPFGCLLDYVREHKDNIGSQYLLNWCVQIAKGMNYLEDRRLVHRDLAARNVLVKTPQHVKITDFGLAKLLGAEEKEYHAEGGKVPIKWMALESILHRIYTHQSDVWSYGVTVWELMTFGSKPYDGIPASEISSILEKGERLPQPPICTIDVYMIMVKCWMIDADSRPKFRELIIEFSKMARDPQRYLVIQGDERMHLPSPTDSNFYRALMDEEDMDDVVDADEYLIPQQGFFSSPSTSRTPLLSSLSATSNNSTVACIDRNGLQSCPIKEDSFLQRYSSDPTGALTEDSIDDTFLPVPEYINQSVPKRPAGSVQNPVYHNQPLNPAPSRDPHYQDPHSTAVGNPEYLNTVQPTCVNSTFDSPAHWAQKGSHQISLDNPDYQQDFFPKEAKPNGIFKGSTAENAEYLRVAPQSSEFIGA
T2 sequence (P06239 whole entry): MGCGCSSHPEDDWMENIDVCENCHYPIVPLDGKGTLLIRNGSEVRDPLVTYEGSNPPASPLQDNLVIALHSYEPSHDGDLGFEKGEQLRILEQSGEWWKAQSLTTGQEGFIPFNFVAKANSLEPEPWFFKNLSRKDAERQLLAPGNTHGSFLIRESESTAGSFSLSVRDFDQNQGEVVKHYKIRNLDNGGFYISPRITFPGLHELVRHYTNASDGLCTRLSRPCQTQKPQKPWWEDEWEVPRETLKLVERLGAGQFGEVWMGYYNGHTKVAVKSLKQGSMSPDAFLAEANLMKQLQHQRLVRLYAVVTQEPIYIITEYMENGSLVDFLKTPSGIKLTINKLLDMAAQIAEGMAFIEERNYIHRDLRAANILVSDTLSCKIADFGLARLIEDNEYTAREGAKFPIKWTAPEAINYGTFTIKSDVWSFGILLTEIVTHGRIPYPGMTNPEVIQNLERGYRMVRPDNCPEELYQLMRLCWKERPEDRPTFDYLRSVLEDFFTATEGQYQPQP

Broadly, the IC50 is the concentration needed to halve the response being measured. Read a high IC50 as a need for much substance. In turn, `COc1cc2ncnc(Oc3cccc(Cl)c3)c2cc1OC` registered a half-inhibitory concentration (IC50) in experiment [1] of 0.02 µM.

Consider `COc1ccc2ncnc(Nc3cc(OC)c(OC)c(OC)c3)c2c1`, for which the results for the IC50 in experiment [1] and in experiment [2] were 0.1 µM and 10 µM, respectively. Compound `COc1cc2ncnc(Nc3cccc(Cl)c3)c2cc1OC` yielded a half-inhibitory concentration (IC50) in experiment [3] of 5 µM. The compound `COc1cc2ncnc(Sc3cccc(Cl)c3)c2cc1OC` had an IC50 in experiment [1] of 0.01 µM. For the compound `COc1ccc(Nc2ncnc3cc(OC)c(OC)cc23)cc1`, the concentration for half-maximal inhibition (IC50) in experiment [1] was 0.25 µM; in experiment [2], 10 µM. For `COc1cc2nc(Cl)nc(Nc3cc(OC)c(OC)c(OC)c3)c2cc1OC`, the results for the IC50 in experiment [1] and in experiment [2] were above 20 µM and above 100 µM, respectively. Consider `COc1cc(Nc2ncnc3cc(OC)c(OC)cc23)cc(OC)c1`, for which the values for the concentration for half-maximal inhibition (IC50) in experiment [1] and in experiment [3] (jurkat) were 3 µM and 10 µM, respectively. For `COc1ccc(Nc2ncnc3cc(OC)c(OC)cc23)cc1OC`, the IC50 came out at 0.35 µM in experiment [1] and 10 µM in experiment [2] (jurkat).

For the compound `COc1cc2ncnc(Nc3ccccc3)c2cc1OC`, 10 µM corresponded to half-maximal inhibition in experiment [3] (IC50). For `COc1cc(Nc2[nH]cnc3ncnc2-3)cc(OC)c1OC`, in experiment [2], 50 µM corresponded to half-maximal inhibition (IC50).

Take `Clc1cccc(Nc2ncnc3ccccc23)c1`: the figures for the IC50 in experiment [3] and in experiment [4] were 50 µM and 0.05 µM, respectively. Regarding `COc1cc2ncnc(Nc3ccc(N4CCOCC4)cc3)c2cc1OC`, the IC50 in experiment [1] is above 1 µM; in experiment [2], above 100 µM. `COc1c(C=O)c(O)cc2c1C(=O)c1ccccc1C2=O` [DAMNACANTHAL]: the IC50 in experiment [2] turned out to be 0.017 µM.

Regarding `COc1ccc(Sc2ncnc3cc(OC)c(OC)cc23)cc1OC`, the 50% inhibitory concentration (IC50) in experiment [1] and in experiment [2] was above 50 µM in each case.

As to `COc1cc(Nc2ncnc3c(C)cc(C)cc23)cc(OC)c1OC`, the results for the half-inhibitory concentration (IC50) in experiment [1] and in experiment [2] were above 20 µM and above 100 µM, respectively. For the compound `COc1cc(Nc2ncnc3c(OC)c(OC)c(OC)cc23)cc(OC)c1OC`, the figures for the half-inhibitory concentration (IC50) in experiment [1] and in experiment [2] were above 20 µM and above 100 µM, respectively. In turn, `COc1cc2ncnc(NCc3ccccc3)c2cc1OC` gave an IC50 in experiment [1] of 0.004 µM.

Turning to `COc1cc2ncnc(N(C)c3ccccc3)c2cc1OC`, the half-inhibitory concentration (IC50) in experiment [3] is above 100 µM.

In experiment [2], `COc1cc2ncnc(Nc3cccc(F)c3)c2cc1OC` displayed a half-inhibitory concentration (IC50) of 10 µM.

As to `COc1cc2ncnc(Nc3ccc(O)cc3)c2cc1OC`, the IC50 was 0.1 µM in experiment [1] and 3 µM in experiment [2]. In the case of `COc1cc(Nc2ncnc3ccc(Cl)cc23)cc(OC)c1OC`, the half-maximal inhibitory concentration (IC50) in experiment [1] is above 1 µM; in experiment [2], above 50 µM. `COc1cc2ncnc(Nc3ccc4c(c3)CCC4)c2cc1OC` gave an IC50 in experiment [2] of 50 µM. On to `COc1cc(Nc2[nH]cnc3nncc2-3)cc(OC)c1OC`, for which 10 µM corresponded to half-maximal inhibition in experiment [2] (IC50).
